Reference: patent US6017918A, “Phenyl glycine compounds and methods of treating atherosclerosis and restenosis” (Warner-Lambert Company, priority 1999, dated 2000)

Legend:
[1] = test system: Lp(a) production (HepG2^K17 cells); assay: LPA3 screen: inhibition of Lp(a) production in HepG2^K17 cells, Lp(a) by ELISA; format: cell-based; details: 8 h, Lp(a) normalized for total protein, ^a = multiple tests
Procedure: The LPA3 screen is used to identify compounds that inhibit Lp(a) production. This screen employs permanently transfected HepG2 cells (HepG2^K17) that are generated using an apo(a) 17-kringle cDNA expression construct (pcDNA-AMP, In Vitrogen, Carlsbad, Calif.) in accordance with methods that are well-known in molecular biology.
HepG2^K17 cells are seeded in 96-well plates at a density of 75,000 cells per well in 0.25 mL of Dulbecco's Modified Eagle Media (DMEM) containing 10% fetal bovine serum (FBS). Seeded plates are incubated overnight in a 37° C., 5% CO2 /95% […] incubator. The media is removed, replaced with (1) fresh media, or (2) fresh media plus 0.3 to 50 μM of a compound of the present invention in 20 μL of PBS, and the plates returned to the incubator for 8 hours. After the additional 8 hours of incubation, Lp(a) is assayed in the media by ELISA. Cells are digested with 0.5N NaOH overnight and assayed for total protein. Lp(a) values are normalized for total protein content.

[2] = test system: apolipoprotein(a), [apo(a)], apolipoproteinB-100, [apoB-100], coupling reaction that generates Lp(a); assay: LPABC screen: lipoprotein(a) biochemical coupling assay, Lp(a) by ELISA; details: recombinant apo(a) + HepG2 conditioned media, 67 minutes, 37° C.; ^a = multiple tests
Text: The lipoprotein(a), [Lp(a)], biochemical coupling assay (LPABC) is used to characterize inhibitors of the apolipoprotein(a), [apo(a)], apolipoproteinB-100, [apoB-100], coupling reaction that generates Lp(a).
Protocol Conditioned media from 293 cells (ATCC CRL-1573), permanently transfected with an apo(a) 17-kringle cDNA expression construct (pcDNA-AMP, In Vitrogen, Carlsbad, Calif.) using standard molecular biology techniques, was used as a source of recombinant apo(a). The 293 cell conditioned media containing the recombinant apo(a) is diluted 1:3 with phosphate buffered saline (PBS) and 90 μL is pipetted into each well of a 96-well plate and placed into a 37° C. incubator for 10 minutes. Twenty microliters of a 0.3 to 50 μM solution of a compound of the present invention in PBS is added to the warmed plate. Ninety microliters of HepG2 (ATCC HB-8065) cell conditioned media diluted 1:3 with PBS is added to the apo(a)/compound mixture and mixed by pipetting up and down 5 times. The reaction is incubated for 67 minutes in a 37° C. incubator. A 100 μL aliquot of the reaction is removed and assayed for its Lp(a) content by an enzyme linked immunosorbent assay (ELISA).

| SMILES | IC50 [2] [µM] | IC50 [1] [µM] |
| --- | --- | --- |
| CCOC(=O)C(NCc1ccncc1)c1cc(C(C)(C)C)c(O)c(C(C)(C)C)c1 (stereo not shown) [Example 3, (3,5-Di-tert-butyl-4-hydroxy-phenyl)-[(pyridin-4-ylmethyl)-amino]-acetic acid ethyl ester] | 7.27 | 25.4 |
| CCOC(=O)C(NCc1ccccn1)c1cc(C(C)(C)C)c(O)c(C(C)(C)C)c1 (stereo not shown) [Example 4] | 6.48 | 9.1 |
| CCOC(=O)C(NCc1ccc(O)c(OC)c1)c1cc(C(C)(C)C)c(O)c(C(C)(C)C)c1 (stereo not shown) [Example 49, (3,5-Di-tert-butyl-4-hydroxy-phenyl)-(4-hydroxy-3-methoxy-benzylamino)-acetic acid ethyl ester] | 15 | > 74 |
| CCOC(=O)C(NCc1cc2c(cc1N)OCO2)c1cc(C(C)(C)C)c(O)c(C(C)(C)C)c1 (stereo not shown) [Example 31, [(6-Amino-benzo[1,3]dioxol-5-ylmethyl)-amino]-(3,5-di-tert-butyl-4-hydroxy-phenyl)-acetic acid ethyl ester] | 21 | > 74 |
| CCOC(=O)C(NCc1cc(OC)c(OC)c(OC)c1)c1cc(C(C)(C)C)c(O)c(C(C)(C)C)c1 (stereo not shown) [Example 15, (3,5-Di-tert-butyl-4-hydroxy-phenyl)-(3,4,5-trimethoxy-benzylamino)-acetic acid ethyl ester] | 10.3 | 4.6 |

More lines, in order of falling IC50 [2], values ahead:

| IC50 [2] [µM] | SMILES | IC50 [1] [µM] |
| --- | --- | --- |
| 54 | CCOC(=O)C(NCc1ccc(N(C)C)cc1)c1cc(C(C)(C)C)c(O)c(C(C)(C)C)c1 (stereo not shown) [Example 38, (3,5-Di-tert-butyl-4-hydroxy-phenyl)-[4-dimethylamino-benzylamino]-acetic acid ethyl ester] | > 74 |
| 47.9 | CCOC(=O)C(NCc1ccc(Cl)cc1Cl)c1cc(C(C)(C)C)c(O)c(C(C)(C)C)c1 (stereo not shown) [Example 36, (3,5-Di-tert-butyl-4-hydroxy-phenyl)-(2,4-dichloro-benzylamino)-acetic acid ethyl ester] | > 74 |
| 46.7 | CCOC(=O)C(NCc1cccc([N+](=O)[O-])c1)c1cc(C(C)(C)C)c(O)c(C(C)(C)C)c1 (stereo not shown) [Example 50, (3,5-Di-tert-butyl-4-hydroxy-phenyl)-(3-nitro-benzylamino)-acetic acid ethyl ester] | > 74 |
| 15.9 | CCOC(=O)C(NCc1cc(Cl)cc(Cl)c1O)c1cc(C(C)(C)C)c(O)c(C(C)(C)C)c1 (stereo not shown) [Example 35, (3,5-Di-tert-butyl-4-hydroxy-phenyl)-(3,5-dichloro-2-hydroxy-benzylamino)-acetic acid ethyl ester] | > 74 |
| 10.6 | CCOC(=O)C(NCc1cc(O)c(OC)c(OC)c1)c1cc(C(C)(C)C)c(O)c(C(C)(C)C)c1 (stereo not shown) [Example 14, (3,5-Di-tert-butyl-4-hydroxy-phenyl)-(3-hydroxy-4,5-dimethoxy-benzylamino)-acetic acid ethyl ester] | 9.3 |
| 6.48 | CCOC(=O)C(Nc1cccnc1)c1cc(C(C)(C)C)c(O)c(C(C)(C)C)c1 (stereo not shown) [Example 1, (3,5-Di-tert-butyl-4-hydroxy-phenyl)-[(pyridin-3-yl)-amino]-acetic acid ethyl ester] | 7.6 |
